What was measured:
[1] = tested on: bacterial Biofilm (Listeria monocytogenes ATCC 35152, Clostridium sporogenes ATCC 19404, Candida albicans ATCC 26555 and Escherichia col); assay: MIC test against bacterial Biofilm; format: cell-based; conditions: incubated 48 h at 37° C.
[2] = tested on: Pseudomonas aeruginosa (ATCC 15442); assay: Minimum Inhibitory Concentration (MIC) test; conditions: incubated 48 h at 37° C.

SMILES	Minimum inhibitory concentration (MIC) [1]	Minimum inhibitory concentration (MIC) [2]
Cc1ccc(C(C)C)cc1O [Carvacrol, 5-Isopropil-2-metilfenol]	1.01%	0.89%
CC12CCC(CC1)C(C)(C)O2 [Eucalyptol, 1,3,3-Trimethyl-2-oxabicyclo[2.2.2]octane]	1.21%	1.09%
CC1CCC(C(C)C)C(O)C1 (stereo not shown) [Menthol, 5-Methyl-2-(propan-2-yl)cyclohexan-1-ol]	5.98%	5.32%
CC1=CCC(O)(C(C)C)CC1 (stereo not shown) [Terpinen-4-ol, 4-Methyl-1-(propan-2-yl)cyclohex-3-en-1-ol]	1.96%	1.64%
Cc1ccc(C(C)C)c(O)c1 [Thymol, 5-Methyl-2-(propan-2-yl) phenol]	2.29%	2.11%
